According to US20210106547A1, “Managing Cardiovascular Conditions Associated with Kidney Disease” (Emory University, priority 2019, published 2021):
“Also recorded” adds a separate entry of the source.

Tests used:
C57BL/6 wild type mice [1] = test: Blood pressure by tail cuff method at 8 weeks after the second surgery; format: in vivo, mouse
Procedure: Systolic blood pressure at 8 weeks after the second surgery.
(§1) Experiment of C57BL/6 wild type mice. Mice underwent 5/6 nephrectomy surgery. Mice were fed 14% protein diet (0 weeks to 2 weeks), 23% protein diet (2 weeks to 6 weeks), and 40% protein diet (6 weeks to 8 weeks). Mice drank 1% NaCl water one week to six weeks after second surgery, and dimethylthiourea (DMTU; UT-A inhibitor) was administered by osmotic mini pump.
(§2) Since an increase in UT-A is associated with an increase in fibrosis proteins in vitro and in vivo, experiments were performed to determine whether inhibition of UT-A could prevent fibrosis in the heart of CKD mice. Mice were randomly divided into four cohorts: sham+vehicle, sham+DMTU, 5/6Nx+vehicle, and 5/6Nx+DMTU. Mini-pumps were used for DMTU administration (100 mg/kgBW/day). The phenotypic characteristics of mice were determined 8 weeks after completing the 5/6Nx (Table 1).

C57BL/6 wild type mice [2] = test: Masson's Trichrome staining of mouse heart tissues, fibrosis area; format: in vivo; conditions: 5/6Nx + DMTU, 5/6Nx+vehicle 1.04±0.15
Procedure: Pictures were observed by ×200 magnification. Scale bar is 100 μm. Dark color indicated fibrosis in Masson's staining.
as §1, §2

UT-A1 = target: T1, UT-A1 (Homo sapiens, UniProt Q15849); conditions: cited from earlier work
T1 sequence (Q15849 1-920): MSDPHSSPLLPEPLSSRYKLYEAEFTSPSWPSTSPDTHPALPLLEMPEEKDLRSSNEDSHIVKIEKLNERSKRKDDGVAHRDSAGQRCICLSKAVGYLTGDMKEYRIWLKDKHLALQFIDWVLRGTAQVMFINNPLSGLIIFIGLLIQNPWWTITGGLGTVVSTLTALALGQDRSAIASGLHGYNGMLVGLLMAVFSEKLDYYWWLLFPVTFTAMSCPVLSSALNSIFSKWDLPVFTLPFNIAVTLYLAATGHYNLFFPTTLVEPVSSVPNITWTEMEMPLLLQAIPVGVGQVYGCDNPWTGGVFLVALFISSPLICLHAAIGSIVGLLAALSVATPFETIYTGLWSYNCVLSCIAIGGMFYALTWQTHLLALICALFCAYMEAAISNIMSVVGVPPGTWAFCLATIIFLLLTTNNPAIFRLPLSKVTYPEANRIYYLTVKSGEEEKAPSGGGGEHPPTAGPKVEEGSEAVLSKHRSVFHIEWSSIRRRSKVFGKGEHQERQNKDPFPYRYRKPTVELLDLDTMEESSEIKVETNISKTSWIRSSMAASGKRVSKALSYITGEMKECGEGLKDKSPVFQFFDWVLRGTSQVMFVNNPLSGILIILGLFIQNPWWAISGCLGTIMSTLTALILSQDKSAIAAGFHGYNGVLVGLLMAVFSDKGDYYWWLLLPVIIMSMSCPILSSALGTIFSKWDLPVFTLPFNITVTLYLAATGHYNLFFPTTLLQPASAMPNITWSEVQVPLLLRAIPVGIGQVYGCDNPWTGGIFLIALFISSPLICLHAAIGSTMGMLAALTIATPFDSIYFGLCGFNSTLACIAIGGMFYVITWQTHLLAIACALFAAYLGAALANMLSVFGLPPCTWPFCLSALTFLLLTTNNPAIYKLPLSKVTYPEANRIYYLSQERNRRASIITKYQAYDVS

Rats = conditions: cited from earlier work
C57BL/6 wild type mice [3] = test: Immunohistochemistry staining of heart for collagen type 1 and α-SMA; format: in vivo, mouse; conditions: 5/6Nx + DMTU compared with 5/6Nx + vehicle
Procedure: as §1, §2

UT-B = target: T2, UT-B (Homo sapiens, UniProt Q13336); conditions: cited from earlier work
T2 sequence (Q13336 1-389): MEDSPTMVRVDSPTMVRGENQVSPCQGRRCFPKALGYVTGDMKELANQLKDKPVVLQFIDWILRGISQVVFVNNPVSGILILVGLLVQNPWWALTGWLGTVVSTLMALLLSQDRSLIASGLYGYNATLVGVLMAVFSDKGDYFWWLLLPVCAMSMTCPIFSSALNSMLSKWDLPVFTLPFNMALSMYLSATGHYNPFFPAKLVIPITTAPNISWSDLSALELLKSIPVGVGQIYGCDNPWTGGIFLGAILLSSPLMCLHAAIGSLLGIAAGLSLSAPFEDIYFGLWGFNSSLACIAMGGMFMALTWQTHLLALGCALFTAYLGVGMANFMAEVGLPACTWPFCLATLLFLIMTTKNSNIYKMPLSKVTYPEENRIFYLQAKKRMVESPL

C57BL/6 wild type mice [4] = test: Cardiac echocardiographic analysis of mice after 5/6 nephrectomy and DMTU treatment; format: in vivo, mouse; conditions: for LVEDV: LV end-diastolic volume; for LVESD: LV end-systolic dimension; for LVESV: LV end-systolic volume; for FS: fractional shortening; for IVSd / IVSs: intraventricular septum; for PWd / PWs: posterior wall thickness; for LVMI: ratio of LVM to BW
Procedure: as §1, §2
Both intraventricular septum (IVS) and posterior wall thicknesses (PW) were greatest in 5/6Nx+vehicle than all other three groups (Table 2).

C57BL/6 wild type mice [5] = test: Heart size and heart weight at sacrifice (cardiac hypertrophy); format: in vivo, mouse
Procedure: White bar is vehicle and black bar is DMTU treatment.
as §1, §2
Inhibition of UT-A suppressed CKD-induced increases in SBP in 5/6Nx mice (5/6Nx+DMTU: 119±3 mmHg vs 5/6Nx+vehicle: 130±2 mmHg, P<0.05) (FIG. 3A). […] DMTU suppressed the CKD-induced increase in heart weight (5/6Nx+DMTU: 3.74±0.12 mg/g vs 5/6Nx+vehicle: 4.50±0.09 mg/g, P<0.001) (FIG. 3D). Since the BW could be altered by either edema (in CKD) or dehydration (by DMTU), dry brain weight was also used to normalize heart weight.

C57BL/6 wild type mice [6] = test: Phenotypic characteristics of sham and 5/6Nx mice 8 weeks after 5/6 nephrectomy, DMTU by osmotic mini pump; format: in vivo, mouse; conditions: for 24 hr intake volume/BW / 24 hr urine osmolality / 24 hr urine volume/BW / BUN / Plasma osmolality / Urine urea / Volume in-out balance/BW: 8 weeks
Procedure: as §1, §2

C57BL/6 wild type mice [7] = test: Quantitative mRNA expression in mouse hearts by real-time PCR; format: in vivo
Procedure: FIG. 4E show quantitative mRNA expression in mouse hearts performed by real-time PCR. Individual gene expression was calculated by ΔΔcq and standardized by housekeeping gene 18s.
Angiotensin converting enzyme (ACE) gene expression was calculated by ΔΔcq and standardized by housekeeping gene 18s.
as §1
Since an increase in UT-A is associated with an increase in fibrosis proteins in vitro and in vivo, experiments were performed to determine whether inhibition of UT-A could prevent fibrosis in the heart of CKD mice. […] The phenotypic characteristics of mice were determined 8 weeks after completing the 5/6Nx (Table 1).
In uremic cardiomyopathy, increased cardiac fibrosis and hypertrophy are associated with upregulation of the renin-angiotensin system (RAS). To identify whether the ability of UT-A to reduce cardiac fibrosis is related to the RAS, the mRNA expression of angiotensin converting enzyme (ACE) was measured in the heart of 4 groups of mice.

CNC(=S)NC [DMTU, N,N′-dimethylthiourea]
SBP (systolic blood pressure) (C57BL/6 wild type mice [1]; 5/6Nx + DMTU, 8 weeks, vs 5/6Nx+vehicle 130±2, P<0.05): 119±3 mmHg | Effect on DBP (diastolic blood pressure) (C57BL/6 wild type mice [1]; sham or 5/6Nx mice): did not affect DBP | Percentage of fibrosis area in heart (C57BL/6 wild type mice [2]): 0.57±0.07% | Inhibition of UT-A1 (UT-A1): inhibits | Diuresis compared with furosemide (Rats): greater diuresis | Side effects like hyponatremia or hypokalemia (Rats): did not show side effects | Collagen type I and α-smooth muscle actin (SMA) proteins in heart (C57BL/6 wild type mice [3]): less | Inhibition of UT-B (UT-B): inhibits | CKD-induced increases of LVESD, LVEDV, LVESV and LVMI (C57BL/6 wild type mice [4]; 5/6Nx + DMTU): eliminated these increases | LVEDD (C57BL/6 wild type mice [4]; 5/6Nx + DMTU): 3.43 ± 0.06 mm | LVM (C57BL/6 wild type mice [4]; 5/6Nx + DMTU): 89 ± 3 mg | LVEDV (C57BL/6 wild type mice [4]; 5/6Nx + DMTU): 62.6 ± 0.3 µL | LVESD (C57BL/6 wild type mice [4]; 5/6Nx + DMTU): 2.77 ± 0.02 mm | LVESV (C57BL/6 wild type mice [4]; 5/6Nx + DMTU): 23.6 ± 0.3 µL | FS (C57BL/6 wild type mice [4]; 5/6Nx + DMTU): 30 ± 0.5 % | IVSd (C57BL/6 wild type mice [4]; 5/6Nx + DMTU): 0.49 ± 0.01 mm | IVSs (C57BL/6 wild type mice [4]; 5/6Nx + DMTU): 1.08 ± 0.00 mm | PWd (C57BL/6 wild type mice [4]; 5/6Nx + DMTU): 0.55 ± 0.01 mm | PWs (C57BL/6 wild type mice [4]; 5/6Nx + DMTU): 0.52 ± 0.01 mm | LVMI (C57BL/6 wild type mice [4]; 5/6Nx + DMTU): 3.44 ± 0.13 mg/g | Percentage of fractional shortening (FS), effect (C57BL/6 wild type mice [4]; CKD heart): restored FS to the normal range | Pericardial effusion (C57BL/6 wild type mice [4]; mice of the cohorts other than 5/6Nx+vehicle (incl. sham+DMTU, 5/6Nx+DMTU)): none of the mice | LVEDD (C57BL/6 wild type mice [4]; sham + DMTU): 3.80 ± 0.18 mm | LVM (C57BL/6 wild type mice [4]; sham + DMTU): 97 ± 7 mg | LVEDV (C57BL/6 wild type mice [4]; sham + DMTU): 57.3 ± 1.8 µL | LVESD (C57BL/6 wild type mice [4]; sham + DMTU): 2.45 ± 0.14 mm | LVESV (C57BL/6 wild type mice [4]; sham + DMTU): 21.8 ± 1.1 µL | FS (C57BL/6 wild type mice [4]; sham + DMTU): 33 ± 0.5% | IVSd (C57BL/6 wild type mice [4]; sham + DMTU): 0.44 ± 0.00 mm | IVSs (C57BL/6 wild type mice [4]; sham + DMTU): 1.05 ± 0.00 mm | PWd (C57BL/6 wild type mice [4]; sham + DMTU): 0.53 ± 0.00 mm | PWs (C57BL/6 wild type mice [4]; sham + DMTU): 0.52 ± 0.03 mm | LVMI (C57BL/6 wild type mice [4]; sham + DMTU): 3.73 ± 0.15 mg/g | Ratio of heart weight to dry brain weight (C57BL/6 wild type mice [5]; 5/6Nx + DMTU, vs 5/6Nx+vehicle 1.34±0.09, P<0.01): 1.04 ± 0.04 mg/mg | Ratio of heart weight/body weight (BW) (C57BL/6 wild type mice [5]; 5/6Nx + DMTU, vs 5/6Nx+vehicle 4.50±0.09, P<0.001): 3.74 ± 0.12 mg/g | CKD-induced increase in heart size (C57BL/6 wild type mice [5]; 5/6Nx mice, at sacrifice): suppressed the CKD-induced increase in heart size | Volume in-out balance relative to 5/6Nx+vehicle (C57BL/6 wild type mice [6]; 5/6Nx + DMTU): the balance was less | 24 hr intake volume/BW (C57BL/6 wild type mice [6]; 5/6Nx + DMTU): 0.265 ± 0.028 mL/g | 24 hr urine osmolality (C57BL/6 wild type mice [6]; 5/6Nx + DMTU): 1206 ± 116 mOsmol/kg H2O | 24 hr urine volume/BW (C57BL/6 wild type mice [6]; 5/6Nx + DMTU): 0.170 ± 0.013 mL/g | BUN (C57BL/6 wild type mice [6]; 5/6Nx + DMTU): 63.7 ± 4.6 mg/dL | Plasma osmolality (C57BL/6 wild type mice [6]; 5/6Nx + DMTU): 329 ± 3 mOsmol/kg H2O | Urine urea (C57BL/6 wild type mice [6]; 5/6Nx + DMTU): 926 ± 95 mmol/L | Volume in-out balance/BW (C57BL/6 wild type mice [6]; 5/6Nx + DMTU): 0.114 ± 0.014 mL/g | Increase of urine volume and decrease of urine osmolality (C57BL/6 wild type mice [6]; CKD mice): absent | BUN values with DMTU treatment vs. vehicle treatment (C57BL/6 wild type mice [6]; either sham or CKD mice): no significant difference | 24 hr intake volume/BW (C57BL/6 wild type mice [6]; sham + DMTU): 0.129 ± 0.006 mL/g | 24 hr urine osmolality (C57BL/6 wild type mice [6]; sham + DMTU): 2378 ± 133 mOsmol/kg H2O | 24 hr urine volume/BW (C57BL/6 wild type mice [6]; sham + DMTU): 0.058 ± 0.010 mL/g | BUN (C57BL/6 wild type mice [6]; sham + DMTU): 31.3 ± 2.8 mg/dL | Plasma osmolality (C57BL/6 wild type mice [6]; sham + DMTU): 322 ± 1 mOsmol/kg H2O | Urine urea (C57BL/6 wild type mice [6]; sham + DMTU): 1555 ± 128 mmol/L | Volume in-out balance/BW (C57BL/6 wild type mice [6]; sham + DMTU): 0.081 ± 0.010 mL/g | Effect on urine osmolality (C57BL/6 wild type mice [6]; sham mice): decreased urine osmolality | Effect on urine volume (C57BL/6 wild type mice [6]; sham mice): increased urine volume | mRNA expression of fibrosis related genes (collagen 1A1, collagen 4A1, fibronectin and α-SMA) in heart (C57BL/6 wild type mice [7]; 5/6Nx + DMTU compared with 5/6Nx + vehicle): less than 5/6Nx+vehicle mice | mRNA expression of angiotensin converting enzyme (ACE) in heart (C57BL/6 wild type mice [7]; sham and 5/6Nx groups, DMTU vs vehicle): significantly abolished ACE expression; also recorded: suppressed an increase in ACE mRNA expression
